Read-outs that look alike come from different tables or passages of the source.
Assays:
Type in all cases: biochemical
[1] = target: MMP-3CD (catalytic domain of stromelysin-1) (Homo sapiens, UniProt P08254); assay: Thiopeptolide hydrolysis assay, MMP-3CD; settings: thiopeptolide substrate, MES buffer pH 6.0
Procedure: (§1) The invention compounds of Formula I have been evaluated in standard assays for their ability to inhibit the catalytic activity of various MMP enzymes.
(§2) Thiopeptolide substrates show virtually no decomposition or hydrolysis at or below neutral pH in the absence of a matrix metalloproteinase enzyme.
(§3) Several representative compounds have been evaluated for their ability to inhibit various matrix metalloproteinase enzymes.
It should be appreciated that the assay buffer used with MMP-3CD was 50 mM of N-morpholinoethane sulfonate (“MES”) at pH 6.0 rather than the HEPES buffer at pH 7.0 described above.

[2] = target: T1, MMP-7FL (full-length matrilysin) (Homo sapiens, UniProt P09237); assay: Thiopeptolide hydrolysis assay, MMP-7FL; settings: thiopeptolide substrate, HEPES pH 7.0
T1 sequence (P09237 95-267): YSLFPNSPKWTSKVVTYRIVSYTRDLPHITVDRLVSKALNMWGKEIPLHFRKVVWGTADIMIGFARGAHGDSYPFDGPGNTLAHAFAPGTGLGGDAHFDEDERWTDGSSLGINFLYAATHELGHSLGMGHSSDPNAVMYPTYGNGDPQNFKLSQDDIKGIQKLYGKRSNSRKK
Description: as §1, §2, §3

[3] = target: MMP-13CD (catalytic domain of collagenase 3) (Homo sapiens, UniProt P45452); assay: Thiopeptolide hydrolysis assay, MMP-13CD; settings: thiopeptolide substrate, HEPES pH 7.0
Description: as §1, §2, §3

[4] = target: MMP-9FL (full-length Gelatinase B) (Homo sapiens, UniProt P14780); assay: Thiopeptolide hydrolysis assay, MMP-9FL; settings: Table 2; thiopeptolide substrate, HEPES pH 7.0; read-out: IC50 (μM) Versus Certain MMPs: MMP09 (FL)
Description: as §1, §2, §3

[5] = target: T2, MMP-1FL (full-length interstitial collagenase) (Homo sapiens, UniProt P03956); assay: Thiopeptolide hydrolysis assay, MMP-1FL; settings: Table 2; thiopeptolide substrate, HEPES pH 7.0; read-out: IC50 (μM) Versus Certain MMPs: MMP01 (FL)
T2 sequence (P03956 100-469): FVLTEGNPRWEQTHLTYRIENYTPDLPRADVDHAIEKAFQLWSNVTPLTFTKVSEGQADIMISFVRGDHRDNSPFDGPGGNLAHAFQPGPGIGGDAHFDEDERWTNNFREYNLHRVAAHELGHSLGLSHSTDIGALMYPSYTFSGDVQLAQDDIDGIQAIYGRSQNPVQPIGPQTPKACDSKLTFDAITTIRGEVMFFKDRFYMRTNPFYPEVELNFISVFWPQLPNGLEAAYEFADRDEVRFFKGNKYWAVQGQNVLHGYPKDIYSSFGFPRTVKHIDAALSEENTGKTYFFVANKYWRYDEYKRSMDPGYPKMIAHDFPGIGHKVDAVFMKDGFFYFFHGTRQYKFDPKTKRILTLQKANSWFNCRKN
Description: as §1, §2, §3

[6] = target: MMP-14CD (catalytic domain of MMP-14) (Homo sapiens, UniProt P50281); assay: Thiopeptolide hydrolysis assay, MMP-14CD; settings: Table 2; thiopeptolide substrate, HEPES pH 7.0; read-out: IC50 (μM) Versus Certain MMPs: MMP14 (CD)
Description: as §1, §2, §3

[7] = Table 2, read-out: IC50 (μM) Versus Certain MMPs: MMP03 (CD)
[8] = Table 2, read-out: IC50 (μM) Versus Certain MMPs: MMP07 (FL)
[9] = Table 2, read-out: IC50 (μM) Versus Certain MMPs: MMP13 (CD)

MMP-3CD (catalytic domain of stromelysin-1), sequence (P08254 100-272 limits assumed): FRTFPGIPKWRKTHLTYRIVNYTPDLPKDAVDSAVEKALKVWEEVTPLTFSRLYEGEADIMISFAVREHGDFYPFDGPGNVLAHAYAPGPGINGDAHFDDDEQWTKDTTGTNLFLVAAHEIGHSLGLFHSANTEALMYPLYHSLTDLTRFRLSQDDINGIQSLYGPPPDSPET
MMP-9FL (full-length Gelatinase B), sequence (P14780 94-707, species assumed): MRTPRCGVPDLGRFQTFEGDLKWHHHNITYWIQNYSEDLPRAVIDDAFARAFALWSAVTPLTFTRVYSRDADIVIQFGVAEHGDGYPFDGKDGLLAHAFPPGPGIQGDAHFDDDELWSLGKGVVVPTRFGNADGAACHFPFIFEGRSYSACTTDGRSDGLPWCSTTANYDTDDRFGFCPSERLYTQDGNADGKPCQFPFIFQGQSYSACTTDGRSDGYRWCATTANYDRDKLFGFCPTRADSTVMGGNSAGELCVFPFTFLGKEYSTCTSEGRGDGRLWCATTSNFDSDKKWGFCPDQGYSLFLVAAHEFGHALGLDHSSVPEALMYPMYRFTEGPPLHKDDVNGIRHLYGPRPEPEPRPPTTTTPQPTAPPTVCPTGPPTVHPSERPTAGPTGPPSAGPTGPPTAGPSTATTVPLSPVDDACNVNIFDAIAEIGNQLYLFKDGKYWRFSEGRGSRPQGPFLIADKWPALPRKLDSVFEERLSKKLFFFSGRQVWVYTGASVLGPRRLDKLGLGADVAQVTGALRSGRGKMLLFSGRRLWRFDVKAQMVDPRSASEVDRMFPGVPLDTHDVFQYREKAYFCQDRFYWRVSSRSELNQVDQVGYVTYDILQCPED

SMILES	IC50 [1, 7] [µM]	IC50 [3, 9] [µM]	other results
CN1C(=O)N(Cc2ccccc2)S(=O)(=O)c2cc(C(=O)OCc3ccccc3)ccc21 [Example 1, 2-Benzyl-4-methyl-1,1,3-trioxo-1,2,3,4-tetrahydro-1l^6-benzo[1,2,4]thiadiazine-7-carboxylic Acid Benzyl Ester]			IC50 ([1]; Table 1, read-out: MMP03 (CD) IC50): 85 µM; IC50 ([2]; Table 1, read-out: MMP07 (FL) IC50): 44 µM; IC50 ([3]; Table 1, read-out: MMP13 (CD) IC50): 0.2 µM
COc1ccc(CNC(=O)c2ccc3c(c2)S(=O)(=O)N(Cc2ccc(C(N)=O)cc2)C(=O)N3C)cc1 [Example 14, 2-(4-Carbamoyl-benzyl)-4-methyl-1,1,3-trioxo-1,2,3,4-tetrahydro-1l^6-benzo[1,2,4]thiadiazine-7-carboxylic acid 4-methoxy-benzylamide]	> 100	0.155	IC50 [4]: > 30 µM; IC50 [5]: > 30 µM; IC50 [6]: > 30 µM; IC50 [2, 8]: > 30 µM
CN1C(=O)N(Cc2ccccc2)S(=O)(=O)c2cc(C(=O)NCc3ccc(F)cc3)ccc21 [Example 16, 2-Benzyl-4-methyl-1,1,3-trioxo-1,2,3,4-tetrahydro-1l^6-benzo[1,2,4]thiadiazine-7-carboxylic acid 4-fluoro-benzylamide]	> 100	0.345	IC50 [4]: > 30 µM; IC50 [5]: > 100 µM; IC50 [6]: > 30 µM; IC50 [2, 8]: > 30 µM
COc1ccc(CNC(=O)c2ccc3c(c2)S(=O)(=O)N(Cc2ccc([N+](=O)[O-])cc2)C(=O)N3C)cc1 [Example 17, 4-Methyl-2-(4-nitro-benzyl)-1,1,3-trioxo-1,2,3,4-tetrahydro-1l^6-benzo[1,2,4]thiadiazine-7-carboxylic acid 4-methoxy-benzylamide]	16	0.615	
CNS(=O)(=O)c1ccc(CN2C(=O)N(C)c3ccc(C(=O)NCc4ccc(OC)cc4)cc3S2(=O)=O)cc1 [Example 18, 4-Methyl-2-(4-methylsulfamoyl-benzyl)-1,1,3-trioxo-1,2,3,4-tetrahydro-1l^6-benzo[1,2,4]thiadiazine-7-carboxylic acid 4-methoxy-benzylamide]	10	0.31	IC50 [4]: > 30 µM; IC50 [5]: > 30 µM; IC50 [6]: > 30 µM; IC50 [2, 8]: > 30 µM
COc1ccc(CNC(=O)c2ccc3c(c2)S(=O)(=O)N(Cc2ccc(S(=O)(=O)N4CCOCC4)cc2)C(=O)N3C)cc1 [Example 19, 4-Methyl-2-[4-(morpholine-4-sulfonyl)-benzyl]-1,1,3-trioxo-1,2,3,4-tetrahydro-1l^6-benzo[1,2,4]thiadiazine-7-carboxylic acid 4-methoxy-benzylamide]	11	0.23	IC50 [4]: > 30 µM; IC50 [5]: > 30 µM; IC50 [6]: > 30 µM; IC50 [2, 8]: > 30 µM
COC(=O)c1ccc(CN2C(=O)N(C)c3ccc(C(=O)NCc4ccc(F)cc4)cc3S2(=O)=O)cc1 [Example 20, 4-[7-(4-Fluoro-benzylcarbamoyl)-4-methyl-1,1,3-trioxo-3,4-dihydro-1H-1l^6-benzo[1,2,4]thiadiazin-2-ylmethyl]-benzoic Acid Methyl Ester]	> 30	0.385	IC50 [4]: 10 µM; IC50 [5]: > 30 µM; IC50 [6]: > 30 µM; IC50 [2, 8]: > 30 µM
COc1ccc(CNC(=O)c2ccc3c(c2)S(=O)(=O)N(Cc2ccc(N)cc2)C(=O)N3C)cc1 [Example 33, 2-(4-Amino-benzyl)-4-methyl-1,1,3-trioxo-1,2,3,4-tetrahydro-1l^6-benzo[1,2,4]thiadiazine-7-carboxylic acid 4-methoxy-benzylamide]		8.8	
CCC#CCN1C(=O)N(C)c2ccc(C(=O)NCc3ccc(OC)cc3)cc2S1(=O)=O [Example 35, 4-methyl-1,1,3-trioxo-2-pent-2-ynyl-1,2,3,4-tetrahydro-1l^6-benzo[1,2,4]thiadiazine-7-carboxylic Acid 4-methoxy-benzylamide]		1.4	
COc1ccc(CNC(=O)c2ccc3c(c2)S(=O)(=O)N(C(C)c2ccccc2)C(=O)N3C)cc1 (stereo not drawn) [Example 36, 4-Methyl-1,1,3-trioxo-2-(1-phenyl-ethyl)-1,2,3,4-tetrahydro-1l^6-benzo[1,2,4]thiadiazine-7-carboxylic Acid 4-methoxy-benzylamide]		6.3	
COc1ccc(CNC(=O)c2ccc3c(c2)S(=O)(=O)N(CCCCCC#N)C(=O)N3C)cc1 [Example 37, 2-(5-Cyano-pentyl)-4-methyl-1,1,3-trioxo-1,2,3,4.tetrahydro-1l^6-benzo[1,2,4]thiadiazine-7-carboxylic Acid 4-methoxy-benzylamide]		3.2	
C/C=C/CN1C(=O)N(C)c2ccc(C(=O)NCc3ccc(OC)cc3)cc2S1(=O)=O [Example 38, 2-(E)-But-2-enyl-4-methyl-1,1,3-trioxo-1,2,3,4-tetrahydro-1l^6-benzo[1,2,4]thiadiazine-7-carboxylic Acid 4-methoxy-benzylamide]		2.2	
CC/C=C/CN1C(=O)N(C)c2ccc(C(=O)NCc3ccc(OC)cc3)cc2S1(=O)=O [Example 39, 4-Methyl-1,1,3-trioxo-2-(E)-pent-2-enyl-1,2,3,4-tetrahydro-1l^6-benzo[1,2,4]thiadiazine-7-carboxylic Acid 4-methoxy-benzylamide]		1.5	
C=C(C)CN1C(=O)N(C)c2ccc(C(=O)NCc3ccc(OC)cc3)cc2S1(=O)=O [Example 40, 4-Methyl-2-(2-methyl-allyl)-1,1,3-trioxo-1,2,3,4-tetrahydro-1l^6-benzo[1,2,4]thiadiazine-7-carboxylic Acid 4-methoxy-benzylamide]		1.7	
COc1ccc(CNC(=O)c2ccc3c(c2)S(=O)(=O)N(CC=C(C)C)C(=O)N3C)cc1 [Example 41, 4-Methyl-2-(3-methyl-but-2-enyl)-1,1,3-trioxo-1,2,3,4-tetrahydro-1l^6-benzo[1,2,4]thiadiazine-7-carboxylic Acid 4-methoxy-benzylamide]		1.9	
COc1ccc(CNC(=O)c2ccc3c(c2)S(=O)(=O)N(CCS(=O)(=O)c2ccc(C)cc2)C(=O)N3C)cc1 [Example 42, 4-Methyl-1,1,3-trioxo-2-[2-(toluene-4-sulfonyl)-ethyl]-1,2,3,4-tetrahydro-1l^6-benzo[1,2,4]thiadiazine-7-carboxylic Acid 4-methoxy-benzylamide]		100	
COc1ccc(CNC(=O)c2ccc3c(c2)S(=O)(=O)N(CCNC(=O)c2ccccc2)C(=O)N3C)cc1 [Example 44, 4-Methyl-1,1,3-trioxo-2-{2-[(1-phenyl-methanoyl)-amino]-ethyl}-1,2,3,4-tetrahydro-1l^6-benzo[1,2,4]thiadiazine-7-carboxylic Acid 4-methoxy-benzylamide]		86	
COc1ccc(CNC(=O)c2ccc3c(c2)S(=O)(=O)N(Cc2ccc4nonc4c2)C(=O)N3C)cc1 [Example 45, 2-Benzo[1,2,5]oxadiazol-5-ylmethyl-4-methyl-1,1,3-trioxo-1,2,3,4-tetrahydro-1l^6-benzo[1,2,4]thiadiazine-7-carboxylic Acid 4-methoxy-benzylamide]		0.7	
COC(=O)Nc1cc(CN2C(=O)N(C)c3ccc(C(=O)NCc4ccc(OC)cc4)cc3S2(=O)=O)on1 [Example 46, {5-[7-(4-Methoxy-benzylcarbamoyl)-4-methyl-1,1,3-trioxo-3,4-dihydro-1H-1l^6-benzo[1,2,4]thiadiazin-2-ylmethyl]-isoxazol-3-yl}-carbamic Acid Methyl Ester]		1.7	
COc1ccc(CNC(=O)c2ccc3c(c2)S(=O)(=O)N(Cc2cscn2)C(=O)N3C)cc1 [Example 47, 4-Methyl-1,1,3-trioxo-2-thiazol-4-ylmethyl-1,2,3,4-tetrahydro-1l^6-benzo[1,2,4]thiadiazine-7-carboxylic Acid 4-methoxy-benzylamide]		13	

Source: patent US6656932B2, “Benzo thiadiazine matrix metalloproteinase inhibitors” (Warner-Lambert Company, priority 2001, dated 2003)
